{"source": "patent US11191820B2", "about": "“Method for inducing early T memory response with short peptides anti-tumor vaccine” (OSE IMMUNOTHERAPEUTICS, priority 2015, dated 2021)", "type_in_all_cases": "in vivo, human", "key": {"[1]": {"system": "central memory T cells", "test": "Cultured IFN-γ ELISPOT after 10-day in vitro stimulation of PBMC, phase 1/2 NSCLC trial of OSE-2101", "parameters": "key to net SFC of vaccine positive CTL responses: —, indicates SFC response did not meet criteria and vaccine response was negative", "conditions": "for Mean SFC / No. Positive Responses: 6 NSCLC patients", "procedure": "(§1) Clinical study design. Both trials were designed as phase 1/2, open label, multi-center, single dose, multiple administration studies to evaluate the safety and immunogenicity of the OSE-2101 immunotherapy. Patients were treated with 1 ml OSE-2101 every 3 weeks for a total of six doses. Each dose was administered subcutaneously in the same vicinity in the deltoid or upper thigh region, or at a contralateral site if local side-effects were observed. The study duration for each completed patient was 18 weeks. Clinical responses or patient survival were not measured in either phase 1/2 studies.\n(§2) Clinical sample processing. Blood or leukapheresis product was obtained from patients at the pre-treatment, the Week 9 and Week 18 time points, 3 weeks after the third and sixth dose of OSE-2101 respectively. Peripheral blood mononuclear cells (PBMC) were isolated from samples within 24 hours of collection using a FICOLL-PAQUE density gradient and cryopreserved in containers designed to ensure optimal freezing (Mr. Frosty, Nalgene). For use, cells were rapidly thawed at 37° C. then transferred to human AB serum-containing medium for work-up.\n(§3) Measurement of central T memory cells responses and T effector memory cells. The CTL responses in 16 total patients (10 colon and six NSCLC) were monitored for CTL responses against each epitope and against the wild-type epitope of epitopes analogs. For each patient, the pre-treatment, Week 9 and Week 18 time points were batch-tested in the same experiment to allow pre- versus post-treatment response comparison in the same experiment. Central T memory cells responses were measured using an IFN-γ enzyme-linked immunospot (cultured ELISPOT) assay following in vitro stimulation of PBMC for 10 days with each vaccine epitope. Briefly, PBMC from each time point were stimulated on day 0 with 10 μg/ml of each epitope individually in replicate in 48-well culture plates (2×10^6 PBMC/well). All cultures were fed with rIL-2 (Endogen, Woburn, Mass.; 10 U/ml final concentration) on days 1, 4 and 7. Ten days after initiation of culture, cells were harvested and tested for activity against specific vaccine peptides and corresponding wild-type peptides of vaccine analogs in the T memory ELISPOT assay. Cells were tested in Millipore IP 96-well plates pre-coated with mouse anti-human IFN-γ antibody (Mabtech USA, Cincinnati, Ohio). Five×10^4 cells and 1.25×10^4 cells from each culture were plated in triplicate wells together with 10^5 irradiated autologous PBMC and 10 μg/ml peptide. As a control, CTL were also tested against an irrelevant HLA-A2.1-binding HBV peptide. After 20 hours incubation, T memory ELISPOT plates were developed by performing sequential incubations with biotinylated anti-human IFN-γ antibody (Mabtech USA), Avidin-Peroxidase Complex (APC, Vector Laboratories, Burlingame, Calif.), and 3-amino-9-ethyl carbazole (AEC) substrate (Sigma Aldrich, St. Louis, Mo.). Spot-forming cells (SFC) were enumerated using a computer-assisted image analysis system (Zeiss KS ELISPOT Reader, Carl Zeiss MicroImaging, Thornwood, N.J.). Data is reported as the net SFC per 5×10^4 cells after subtracting spots induced with the irrelevant HBV peptide."}, "[2]": {"system": "central memory T cells", "test": "Central memory T cell cultured ELISPOT, phase 2 trial in advanced NSCLC", "procedure": "CTL Immune responses measured though cultured Elispot. The immunogenicity was measured in Phase 2 clinical trial on cryopreserved PBMC from each test sample were thawed in 5% human culture medium (RPMI-1640 medium with 25 mM HEPES, supplemented with 5% human AB serum, 4 mM L-glutamine, 0.5 mM sodium pyruvate, 0.1 mM MEM non-essential amino acids, 100 μg/ml streptomycin, and 100 U/ml penicillin) containing 30 μg/ml DNAase. After centrifugation for 5 minutes at 1200 rpm, the cell pellets were resuspended in 5% human culture medium and washed 2 times. For the central Memory T cell cultured ELISPOT assay, 2×10^6/ml PBMC were placed in replicate wells in a 48-well plates and stimulated for 10 days with 10 μg/ml of each peptide. As a positive control, PBMC were also stimulated with a pool of recall viral peptides. Human rIL2 (10 U/ml) was added to the peptide-stimulated cultures at day 1, day 4 and day 7. After 10 days the stimulated cells were harvested and plated at a concentration of 5×10^4/well. Assay wells also received irradiated autologous PBMC (1×10^5/well) and 10 μg/ml peptide, either the vaccine peptide, irrelevant peptide or positive control peptides. Cells stimulated in vitro with each analog epitope were also tested against the corresponding wild-type epitope.\nData analysis and acceptance criteria. Mean and standard deviation (SD) of spots in replicate wells were calculated in all assays by transferring raw ELISPOT data from each experiment to an Excel-based computer program. Positive vaccine-induced T-cell responses were determined according to the criteria described below.\nAcceptance Criteria for peptide-Induced specific T-cell response through central memory T cells: The positive criteria for CTL responses used in the phase 2 trial was identical to the criteria in the phase 1/2 trials which was established prospectively after analyzing the variability of pre-treatment responses in patients against each vaccine epitope and the irrelevant HBV control epitope. A positive peptide-induced CTL/T memory response to a given epitope met all of the following conditions: 1) was greater than 5 SFC above the irrelevant epitope response, 2) was greater than the mean SFC of the irrelevant epitope response, plus 2 SD, and 3) was two-fold greater than the SFC response in the pre-vaccination sample from the same patient, plus 2 SD. The inclusion of “plus two standard deviations” was used to accommodate the assay variability and served to increase the criteria stringency."}, "[3]": {"system": "central memory T cells", "test": "Cultured IFN-γ ELISPOT after 10-day in vitro stimulation of PBMC, phase 1/2 colon cancer trial of OSE-2101", "parameters": "key to net SFC of vaccine positive CTL responses: —, indicates SFC response did not meet criteria and vaccine response was negative", "conditions": "for Mean SFC: 10 colon patients", "procedure": "as §1, §2, §3"}}}
{"sequence": "IMIGHLVGV [CEA.691H5 A]", "values": [{"measurement": "Mean SFC", "setting": "[1]; Week 9", "result": "84.2 SFC per 50,000 cells"}, {"measurement": "No. Positive Responses", "setting": "[1]; Week 9", "result": 2}, {"measurement": "Mean SFC", "setting": "[1]; Week 18", "result": "132.7 SFC per 50,000 cells"}, {"measurement": "No. Positive Responses", "setting": "[1]; Week 18", "result": 3}, {"measurement": "net SFC of vaccine positive CTL responses", "setting": "[1]; NSCLC patient 201, Week 9", "result": "—"}, {"measurement": "net SFC of vaccine positive CTL responses", "setting": "[1]; NSCLC patient 201, Week 18", "result": "—"}, {"measurement": "net SFC of vaccine positive CTL responses", "setting": "[1]; NSCLC patient 502, Week 9", "result": "—"}, {"measurement": "net SFC of vaccine positive CTL responses", "setting": "[1]; NSCLC patient 502, Week 18", "result": "—"}, {"measurement": "net SFC of vaccine positive CTL responses", "setting": "[1]; NSCLC patient 504, Week 9", "result": "42.7 SFC per 50,000 cells"}, {"measurement": "net SFC of vaccine positive CTL responses", "setting": "[1]; NSCLC patient 504, Week 18", "result": "284.0 SFC per 50,000 cells"}, {"measurement": "net SFC of vaccine positive CTL responses", "setting": "[1]; NSCLC patient 505, Week 9", "result": "—"}, {"measurement": "net SFC of vaccine positive CTL responses", "setting": "[1]; NSCLC patient 505, Week 18", "result": "45.3 SFC per 50,000 cells"}, {"measurement": "net SFC of vaccine positive CTL responses", "setting": "[1]; NSCLC patient 532, Week 9", "result": "125.7 SFC per 50,000 cells"}, {"measurement": "net SFC of vaccine positive CTL responses", "setting": "[1]; NSCLC patient 532, Week 18", "result": "—"}, {"measurement": "net SFC of vaccine positive CTL responses", "setting": "[1]; NSCLC patient 651, Week 9", "result": "—"}, {"measurement": "net SFC of vaccine positive CTL responses", "setting": "[1]; NSCLC patient 651, Week 18", "result": "68.7 SFC per 50,000 cells"}, {"measurement": "% of patients with positive CTL/central memory T cell response", "setting": "[2]; phase 2, month 9", "result": 43, "unit": "%"}, {"measurement": "patients with positive CTL/central memory T cell response / patients tested", "setting": "[2]; phase 2, month 9", "result": "3/7"}, {"measurement": "% of patients with positive CTL/central memory T cell response", "setting": "[2]; phase 2, month 12", "result": 50, "unit": "%"}, {"measurement": "patients with positive CTL/central memory T cell response / patients tested", "setting": "[2]; phase 2, month 12", "result": "2/4"}, {"measurement": "% of patients with positive CTL/central memory T cell response", "setting": "[2]; phase 2, week 9", "result": 64, "unit": "%"}, {"measurement": "patients with positive CTL/central memory T cell response / patients tested", "setting": "[2]; phase 2, week 9", "result": "7/11"}, {"measurement": "% of patients with positive CTL/central memory T cell response", "setting": "[2]; phase 2, week 18", "result": 91, "unit": "%"}, {"measurement": "patients with positive CTL/central memory T cell response / patients tested", "setting": "[2]; phase 2, week 18", "result": "10/11"}, {"measurement": "% of patients with positive CTL/central memory T cell response", "setting": "[2]; phase 2, week 30", "result": 33, "unit": "%"}, {"measurement": "patients with positive CTL/central memory T cell response / patients tested", "setting": "[2]; phase 2, week 30", "result": "2/6"}, {"measurement": "Mean SFC", "setting": "[3]; Week 9", "result": "178.0 SFC per 50,000 cells"}, {"measurement": "Mean SFC", "setting": "[3]; Week 18", "result": "300.6 SFC per 50,000 cells"}, {"measurement": "net SFC of vaccine positive CTL responses", "setting": "[3]; colon patient 551, Week 9", "result": "92.7 SFC per 50,000 cells"}, {"measurement": "net SFC of vaccine positive CTL responses", "setting": "[3]; colon patient 551, Week 18", "result": "68.7 SFC per 50,000 cells"}, {"measurement": "net SFC of vaccine positive CTL responses", "setting": "[3]; colon patient 601, Week 9", "result": "417.3 SFC per 50,000 cells"}, {"measurement": "net SFC of vaccine positive CTL responses", "setting": "[3]; colon patient 601, Week 18", "result": "133.7 SFC per 50,000 cells"}, {"measurement": "net SFC of vaccine positive CTL responses", "setting": "[3]; colon patient 602, Week 9", "result": "—"}, {"measurement": "net SFC of vaccine positive CTL responses", "setting": "[3]; colon patient 602, Week 18", "result": "—"}, {"measurement": "net SFC of vaccine positive CTL responses", "setting": "[3]; colon patient 603, Week 9", "result": "32.7 SFC per 50,000 cells"}, {"measurement": "net SFC of vaccine positive CTL responses", "setting": "[3]; colon patient 603, Week 18", "result": "8.0 SFC per 50,000 cells"}, {"measurement": "net SFC of vaccine positive CTL responses", "setting": "[3]; colon patient 604, Week 9", "result": "109.3 SFC per 50,000 cells"}, {"measurement": "net SFC of vaccine positive CTL responses", "setting": "[3]; colon patient 604, Week 18", "result": "397.3 SFC per 50,000 cells"}, {"measurement": "net SFC of vaccine positive CTL responses", "setting": "[3]; colon patient 605, Week 9", "result": "65.7 SFC per 50,000 cells"}, {"measurement": "net SFC of vaccine positive CTL responses", "setting": "[3]; colon patient 605, Week 18", "result": "—"}, {"measurement": "net SFC of vaccine positive CTL responses", "setting": "[3]; colon patient 606, Week 9", "result": "24.3 SFC per 50,000 cells"}, {"measurement": "net SFC of vaccine positive CTL responses", "setting": "[3]; colon patient 606, Week 18", "result": "45.0 SFC per 50,000 cells"}, {"measurement": "net SFC of vaccine positive CTL responses", "setting": "[3]; colon patient 607, Week 9", "result": "593.3 SFC per 50,000 cells"}, {"measurement": "net SFC of vaccine positive CTL responses", "setting": "[3]; colon patient 607, Week 18", "result": "1648.0 SFC per 50,000 cells"}, {"measurement": "net SFC of vaccine positive CTL responses", "setting": "[3]; colon patient 608, Week 9", "result": "—"}, {"measurement": "net SFC of vaccine positive CTL responses", "setting": "[3]; colon patient 608, Week 18", "result": "18.0 SFC per 50,000 cells"}, {"measurement": "net SFC of vaccine positive CTL responses", "setting": "[3]; colon patient 609, Week 9", "result": "89.0 SFC per 50,000 cells"}, {"measurement": "net SFC of vaccine positive CTL responses", "setting": "[3]; colon patient 609, Week 18", "result": "86.0 SFC per 50,000 cells"}]}
